{
  "source": "patent US4845080A",
  "about": "“Human calcitonin peptide with salmon calcitonin-like characteristics” (Ciba-Geigy Corporation, priority 1983, dated 1989)",
  "key": {"[1]": {"target": "antibody serum to synthetic sCT", "assay": "Radioimmunoassay with antibodies to synthetic sCT, inhibition of [125I]sCT binding", "parameters": "species or system goat", "protocol": "The concentration of hCT 2 is determined radioimmunologically in a concentration series. 10, 20, 50 and 100 μl, respectively, of the HPLC fractions, which have been aftertreated as described above, are preincubated for 3 days at 4° C. together with 100 μl of antibody serum to synthetic sCT (Sandoz AG, Basle, Switzerland) in an immunoassay buffer with a total volume of 300 μl (immunoassay buffer: 0.05M phosphate, pH 7.5, 10% of human serum containing no detectable amounts of immunoreactive sCT), and, after the addition of 200 μl of assay buffer having 15,000 dpm of [^125 I]sCT (specific activity 600 Ci/mmol), subsequently incubated for a further 3 days at 4° C. The labelling of sCT with ^125 I is performed with Chloramin-T (Eastman Kodak, Rochester, USA) essentially according to the method of W. M. Hunter and F. C.\nThe above-mentioned antibody serum is obtained as follows: The antibodies are produced in a 25 kg goat after primary immunisation with 200 μg of sCT (see above) as antigen, and reimmunisation with 100 μg of the same antigen 30 days after the primary immunisation. For immunisation, sCT is dissolved in 0.01M acetic acid (1 mg/ml), the solution is mixed with 2 percent by weight of solid aluminium hydroxide (Alhydrogel, Superfos Export Co. a/s Copenhagen, Denmark) and the mixture is suspended in an equal volume of complete Freund's adjuvant (Difco Laboratories, Detroit, Mich., USA). This suspension is produced in an Omnimixer (Sorvall) at 4° C. at the maximum mixing rate. 0.5-1.0 ml of suspension is drawn up into disposable syringes (Primo 1 ml, Asik I/S, Denmark), and administered on each leg subcutaneously in the region of the subaxillary lymph nodes. Ten days after the abovementioned reimmunisation, 50-80 ml of blood containing the desired antibodies against sCT are withdrawn from the jugular vein into heparinised tubes, and the plasma obtained is stored at -20° C. in 3-5 ml portions.\n(§1) The quantity of antibodies obtained is estimated by measurement of the binding of the withdrawn plasma to [^125 I] sCT. Antibody-bound and free [^125 I]sCT are separated by means of charcoal coated with dextran, in the main according to the method of V. Herbert, K.-S. Lau, C. W. Gottlieb and S. J. Bleicher [J. Clin. Endocrinol. Metab. 25, 1375-1384 (1965)]. The same method is used for the detection of antibodies in human serum."}, "[2]": {"assay": "Detection of antibodies able to react with sCT in human serum (binding to [125I]sCT)", "conditions": "verified with radioimmunoassay", "from_the_text": "(c) in the human serum no initiation of the formation of detectable amounts of antibodies which are able to react with sCT, the binding to [^125 I]sCT having a specific activity of 600 Ci/mmol being used for verfying this evidence;\nThe substance hCT 2 differs from the known hCT in the aforementioned HPLC system by virtue of a clearly different retention time; on the other hand, hCT 2 has a retention time practically identical to that of sCT. In the aforementioned gel system, the elution volume of hCT 2 differs from that of hCT, but is practically identical to that of sCT. These facts indicate that hCT 2 with respect to the amino acid composition, even though not necessarily with respect to the amino acid sequence, is more closely related to sCT than to hCT. With regard to immunology, however, hCT 2 differs greatly from sCT.\nas §1"}},
  "data": [
    {"smiles": "CC[C@H](C)[C@H](NC(=O)[C@H](C)NC(=O)[C@@H](NC(=O)[C@H](CCC(N)=O)NC(=O)[C@@H]1CCCN1C(=O)[C@H](Cc1ccccc1)NC(=O)[C@@H](NC(=O)[C@H](Cc1c[nH]cn1)NC(=O)[C@H](Cc1ccccc1)NC(=O)[C@H](CCCCN)NC(=O)[C@H](CC(N)=O)NC(=O)[C@H](Cc1ccccc1)NC(=O)[C@H](CC(=O)O)NC(=O)[C@H](CCC(N)=O)NC(=O)[C@@H](NC(=O)[C@H](Cc1ccc(O)cc1)NC(=O)[C@@H](NC(=O)CNC(=O)[C@H](CC(C)C)NC(=O)[C@H](CCSC)NC(=O)[C@@H]1CSSC[C@H](N)C(=O)NCC(=O)N[C@@H](CC(N)=O)C(=O)N[C@@H](CC(C)C)C(=O)N[C@@H](CO)C(=O)N[C@@H]([C@@H](C)O)C(=O)N1)[C@@H](C)O)[C@@H](C)O)[C@@H](C)O)[C@@H](C)O)C(=O)NCC(=O)N[C@H](C(=O)NCC(=O)N[C@@H](C)C(=O)N1CCC[C@H]1C(N)=O)C(C)C", "note": "[hCT, human calcitonin-(1-32)]", "values": [
      {"measurement": "amount not giving comparable (half maximum) inhibition of the binding of [125I]sCT to the antibodies", "setting": "[1]; antibody final dilution 1:25,000", "value": "> 10", "unit": "µg"}
    ]},
    {"smiles": "CC(C)C[C@H](NC(=O)[C@H](CCCCN)NC(=O)CNC(=O)[C@H](CC(C)C)NC(=O)[C@@H](NC(=O)[C@@H]1CSSC[C@H](N)C(=O)N[C@@H](CO)C(=O)N[C@@H](CC(N)=O)C(=O)N[C@@H](CC(C)C)C(=O)N[C@@H](CO)C(=O)N[C@@H]([C@@H](C)O)C(=O)N1)C(C)C)C(=O)N[C@@H](CO)C(=O)N[C@@H](CCC(N)=O)C(=O)N[C@@H](CCC(=O)O)C(=O)N[C@@H](CC(C)C)C(=O)N[C@@H](Cc1c[nH]cn1)C(=O)N[C@@H](CCCCN)C(=O)N[C@@H](CC(C)C)C(=O)N[C@@H](CCC(N)=O)C(=O)N[C@H](C(=O)N[C@@H](Cc1ccc(O)cc1)C(=O)N1CCC[C@H]1C(=O)N[C@@H](CCCNC(=N)N)C(=O)N[C@H](C(=O)N[C@@H](CC(N)=O)C(=O)N[C@H](C(=O)NCC(=O)N[C@@H](CO)C(=O)NCC(=O)N[C@H](C(=O)N1CCC[C@H]1C(N)=O)[C@@H](C)O)[C@@H](C)O)[C@@H](C)O)[C@@H](C)O", "note": "[sCT, salmon calcitonin-(1-32)]", "values": [
      {"measurement": "half maximum inhibition of the binding of [125I]sCT to the antibodies", "setting": "[1]; antibody final dilution 1:25,000, 15,000 dpm [125I]sCT, 4° C., amount per tube", "value": "about 100 pg"},
      {"measurement": "concentration at which the antibodies react with sCT compared with hCT, which they do not recognise", "setting": "[1]; lower concentration for sCT", "value": "≤ 10^5 fold"},
      {"measurement": "half maximum inhibition of the binding of [125I]sCT to the antibodies", "setting": "[1]; same value given in pmol", "value": 0.03, "unit": "pmol"},
      {"measurement": "formation of antibodies in the human serum", "setting": "[2]", "value": "produces in the human serum an antibody response"}
    ]}
  ]
}
